Each structure is given as a SMILES string. ≈ marks a conversion by molar mass, not a printed value. Where only a bound is given, the exact number is not on record here.

EGFR, sequence (P00533 whole entry, looked up): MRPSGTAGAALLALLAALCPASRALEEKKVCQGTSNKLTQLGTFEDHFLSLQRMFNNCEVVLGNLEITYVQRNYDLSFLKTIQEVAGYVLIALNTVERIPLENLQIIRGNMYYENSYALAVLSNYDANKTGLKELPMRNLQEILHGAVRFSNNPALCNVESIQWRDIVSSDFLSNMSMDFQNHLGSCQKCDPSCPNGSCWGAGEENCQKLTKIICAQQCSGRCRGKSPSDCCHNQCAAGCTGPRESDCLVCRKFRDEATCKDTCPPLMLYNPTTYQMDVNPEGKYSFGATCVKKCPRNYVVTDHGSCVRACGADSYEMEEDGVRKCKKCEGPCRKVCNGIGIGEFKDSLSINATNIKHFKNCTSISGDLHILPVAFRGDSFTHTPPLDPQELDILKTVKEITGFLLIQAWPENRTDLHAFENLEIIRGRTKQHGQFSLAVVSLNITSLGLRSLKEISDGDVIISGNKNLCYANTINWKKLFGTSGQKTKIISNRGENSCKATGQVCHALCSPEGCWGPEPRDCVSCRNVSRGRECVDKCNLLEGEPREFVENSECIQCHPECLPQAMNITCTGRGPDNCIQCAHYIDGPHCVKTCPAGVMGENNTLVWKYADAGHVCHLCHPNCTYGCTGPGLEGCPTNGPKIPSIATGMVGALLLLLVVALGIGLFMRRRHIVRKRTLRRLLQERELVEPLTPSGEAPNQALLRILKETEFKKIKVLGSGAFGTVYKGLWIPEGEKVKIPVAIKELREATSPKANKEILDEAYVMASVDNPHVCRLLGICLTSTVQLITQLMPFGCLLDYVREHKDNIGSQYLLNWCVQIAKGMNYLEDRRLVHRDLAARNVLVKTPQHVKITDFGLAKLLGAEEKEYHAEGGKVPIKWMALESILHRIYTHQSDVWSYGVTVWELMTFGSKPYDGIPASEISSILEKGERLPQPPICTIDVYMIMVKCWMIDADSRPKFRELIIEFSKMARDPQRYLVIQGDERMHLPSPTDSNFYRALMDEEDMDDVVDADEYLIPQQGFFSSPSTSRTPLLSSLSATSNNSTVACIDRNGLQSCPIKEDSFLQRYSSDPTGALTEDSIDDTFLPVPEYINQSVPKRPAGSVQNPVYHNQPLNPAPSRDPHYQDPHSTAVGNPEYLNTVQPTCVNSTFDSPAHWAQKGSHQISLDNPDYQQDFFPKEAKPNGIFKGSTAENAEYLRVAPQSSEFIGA

The experiment addresses EGFR (UniProt P00533).
Consider `CN(c1cccc(Cl)c1)c1ncnc(NCCOCCO)n1`, for which the IC50 is greater than 4.5 µg/mL.
`COc1cc(Nc2ncnc(Nc3cc(OC)c(OC)c(OC)c3)n2)cc(OC)c1OC` had an IC50 of 3.5 to 4.5 µg/mL (≈ 7.89 to 10.1 µM).
The same measure for `COc1cc(Nc2ncnc(NC3CC3c3ccccc3)n2)cc(OC)c1OC` (stereo not given): less than 0.4 µg/mL; for `COc1ccc(Nc2ncnc(Nc3ccccc3C)n2)cc1OC`: less than 0.4 µg/mL; for `COc1cc(Nc2ncnc(-n3c(N[C@@H](C)c4ccccc4)nc4ccccc43)n2)cc(OC)c1OC`: 2.4 to 3.5 µg/mL (≈ 4.82 to 7.03 µM).
The same measure for `COc1cc(Nc2ncnc(-n3c(Nc4ccc(C)cc4)nc4ccccc43)n2)cc(OC)c1OC`: greater than 4.5 µg/mL.
The same measure for `COc1cc(Nc2ncnc(-n3c(NCCc4cccnc4)nc4ccccc43)n2)cc(OC)c1OC`: greater than 4.5 µg/mL; for `COc1cc(Nc2ncnc(-n3ccc4ccc(Cl)cc43)n2)cc(OC)c1OC`: 3.5 to 4.5 µg/mL (≈ 8.5 to 10.9 µM); for `COc1ccc(Nc2ncnc(N(C)[C@H](C)c3ccccc3)n2)cc1OC`: 0.4 to 2.4 µg/mL (≈ 1.09 to 6.57 µM).
Take `O=c1[nH]c2ccccc2n1-c1ncnc(Nc2ccccc2Cl)n1`: the 50% inhibitory concentration (IC50) lay in the range of 0.4 to 2.4 µg/mL (≈ 1.18 to 7.08 µM).
The same measure for `COc1ccc2c(c1)nc(NCc1ccc(F)cc1)n2-c1ncnc(Nc2cc(OC)c(OC)c(OC)c2)n1.COc1ccc2nc(NCc3ccc(F)cc3)n(-c3ncnc(Nc4cc(OC)c(OC)c(OC)c4)n3)c2c1`: 2.4 to 3.5 µg/mL; for `CCCN(CC1CC1)c1ncnc(Nc2cc(OC)c(OC)c(OC)c2)n1`: 3.5 to 4.5 µg/mL (≈ 9.37 to 12 µM).
`Cc1ccc(-c2cc(Nc3ncnc(Nc4cc(C)ccc4C)n3)[nH]n2)cc1`: the IC50 is less than 0.4 µg/mL.
Consider `COc1cc(Nc2ncnc(-n3c(N)nc4cc(Cl)ccc43)n2)cc(OC)c1OC.COc1cc(Nc2ncnc(-n3c(N)nc4ccc(Cl)cc43)n2)cc(OC)c1OC`, for which the IC50 is greater than 4.5 µg/mL.
The same measure for `CC(C)(C)OC(=O)NCCCNc1ncnc(-c2ccccc2)n1`: greater than 4.5 µg/mL.
`COc1ccc(Nc2ncnc(NCc3c(C)cccc3Cl)n2)cc1OC` had an IC50 greater than 4.5 µg/mL.
With `COc1cc(Nc2ncnc(-n3c(=O)sc4cc(Br)ccc43)n2)cc(OC)c1OC`, the IC50 was greater than 4.5 µg/mL.
The same measure for `OCc1cccc(Nc2ncnc(-c3cccnc3Nc3ccccc3)n2)c1`: 0.4 to 2.4 µg/mL (≈ 1.08 to 6.48 µM).
The same measure for `COc1cc(Nc2ncnc(-n3c(NCc4cccc(C)c4)nc4ccccc43)n2)cc(OC)c1OC`: greater than 4.5 µg/mL; for `COc1ccc(Nc2ncnc(NC[C@@H]3CCCO3)n2)cc1OC`: greater than 4.5 µg/mL; for `CCN(c1ccc(C)cc1)c1ncnc(Nc2cc(OC)c(OC)c(OC)c2)n1`: less than 0.4 µg/mL.
In the case of `CCc1ccc(Nc2ncnc(-n3c(N)nc4ccccc43)n2)cc1`, the IC50 lay within 0.4 to 2.4 µg/mL (≈ 1.21 to 7.24 µM).
On to `NC(=O)Cc1cccc(Nc2ncnc(Nc3cccc(Br)c3)n2)c1`, for which the IC50 is less than 0.4 µg/mL.
The same measure for `COc1ccc(CNc2nc3ccccc3n2-c2ncnc(Nc3cccc(C(=O)O)c3)n2)cc1`: greater than 4.5 µg/mL.
For `COc1cc(Nc2ncnc(-n3c(=O)[nH]c4ccccc43)n2)cc(OC)c1OCCN1CCOCC1` the value was 2.4 to 3.5 µg/mL (≈ 4.86 to 7.09 µM).
The same measure for `COC(=O)c1ccc(-c2cc(Nc3ncnc(NCCCO)n3)[nH]n2)cc1`: greater than 4.5 µg/mL; for `COc1ccc(Nc2ncnc(NCc3ncc(C(F)(F)F)cc3Cl)n2)cc1OC`: 2.4 to 3.5 µg/mL (≈ 5.44 to 7.94 µM); for `COc1ccc2c(c1)nc(Cl)n2-c1ncnc(Nc2cc(OC)c(OC)c(OC)c2)n1.COc1ccc2nc(Cl)n(-c3ncnc(Nc4cc(OC)c(OC)c(OC)c4)n3)c2c1`: greater than 4.5 µg/mL.
`COc1cc(Nc2ncnc(Nc3ccc(N4CCCCC4)cc3)n2)cc(OC)c1OC` returned a half-maximal inhibitory concentration (IC50) of 0.4 to 2.4 µg/mL (≈ 0.916 to 5.5 µM).
For `COc1cc(Nc2ncnc(-n3c(N)nc4ccccc43)n2)cc(OC)c1OCCN1CCOCC1` the value was greater than 4.5 µg/mL.
Consider `COc1cc(Nc2ncnc(Nc3cccc4cccnc34)n2)cc(OC)c1OC`, for which the IC50 is greater than 4.5 µg/mL.
For `COc1ccc(CNc2nc3cc(OC)ccc3n2-c2ncnc(Nc3cc(OC)c(OC)c(OC)c3)n2)cc1.COc1ccc(CNc2nc3ccc(OC)cc3n2-c2ncnc(Nc3cc(OC)c(OC)c(OC)c3)n2)cc1` the value was greater than 4.5 µg/mL; for `COc1cc(Nc2ncnc(-n3c(NCc4ccc(Cl)cc4F)nc4ccccc43)n2)cc(OC)c1OC`, greater than 4.5 µg/mL.
For `COc1ccc(CNc2ncnc(Nc3cc(-c4ccco4)[nH]n3)n2)cc1OC` the value was 0.4 to 2.4 µg/mL (≈ 1.02 to 6.1 µM).
The compound `COc1cc(Nc2ncnc(-c3cccnc3N)n2)cc(OC)c1OC` gave an IC50 greater than 4.5 µg/mL.
The compound `COc1cc(Nc2ncnc(N(CC(=O)OC(C)(C)C)c3ccc(Cl)cc3)n2)cc(OC)c1OC` displayed an IC50 of 0.4 to 2.4 µg/mL (≈ 0.797 to 4.78 µM).
On to `COc1cc(Nc2ncnc(Nc3ccc(OCC(=O)Nc4ccccc4)cc3)n2)cc(OC)c1OC`, for which the IC50 was 0.4 to 2.4 µg/mL (≈ 0.796 to 4.78 µM).
Consider `COc1cc(Nc2ncnc(N(c3ccc(Cl)cc3)c3nc4ccccc4[nH]3)n2)cc(OC)c1OC`, for which the IC50 is less than 0.4 µg/mL.
In the case of `CCOC(=O)Cc1ccc(Nc2ncnc(-c3ccccc3)n2)cc1`, the IC50 is greater than 4.5 µg/mL.
For `COc1cc(Nc2ncnc(-c3cccnc3NC(C)c3cccc4ccccc34)n2)cc(OC)c1OC` (stereo not given) the value was greater than 4.5 µg/mL.
For `COc1cc(Nc2ncnc(Nc3cccc(Oc4ccccc4)c3)n2)cc(OC)c1OC` the value was 0.4 to 2.4 µg/mL (≈ 0.898 to 5.39 µM); for `CN(c1cccc(Br)c1)c1ncnc(Nc2cccc(Cc3nnn[nH]3)c2)n1`, less than 0.4 µg/mL.
On to `COc1cc(Nc2ncnc(Nc3ccncc3)n2)cc(OC)c1OC`, for which the IC50 is greater than 4.5 µg/mL.
In turn, `O=C(O)CCNC(=O)c1ccc(Nc2ncnc(Nc3cc(-c4ccco4)[nH]n3)n2)cc1` showed an IC50 of 0.4 to 2.4 µg/mL (≈ 0.921 to 5.52 µM).
`O=c1[nH]c2ccccc2n1-c1ncnc(Nc2ccccc2[N+](=O)[O-])n1` registered an IC50 greater than 4.5 µg/mL.
